Laboratory results taken from ChEMBL document CHEMBL5126621, “Modifying a Hydroxyl Patch in Glucagon-like Peptide 1 Produces Biased Agonists with Unique Signaling Profiles” (J Med Chem, 2022).
Active and inactive are the calls of the source. No cut-off for these calls is given here. Where a SMILES comes first, the peptide text is derived from it. [ ]: non-standard residue; d: D form. Abu = CC[C@H](N)C(=O)O

Experiments:
[1] = Drug uptake in human GLP-1R expressed in CHO cells coexpressing GFP assessed as drug internalization at 100 nM incubated for 30 mins by inverted microscopic analysis; type: ADME, cell-based, Cricetulus griseus; conditions: chinese hamster, 0.5 h, 0.1 µM
[2] = biological target: T1, Glucagon-like peptide 1 receptor (Homo sapiens, UniProt P43220); experiment: Agonist activity at human GLP-1R expressed in CHO cells coexpressing GFP assessed as receptor internalization at 10 uM by confocal fluorescence microscopy; type: functional, cell-based; conditions: filed as agonist
T1 sequence (P43220 whole entry): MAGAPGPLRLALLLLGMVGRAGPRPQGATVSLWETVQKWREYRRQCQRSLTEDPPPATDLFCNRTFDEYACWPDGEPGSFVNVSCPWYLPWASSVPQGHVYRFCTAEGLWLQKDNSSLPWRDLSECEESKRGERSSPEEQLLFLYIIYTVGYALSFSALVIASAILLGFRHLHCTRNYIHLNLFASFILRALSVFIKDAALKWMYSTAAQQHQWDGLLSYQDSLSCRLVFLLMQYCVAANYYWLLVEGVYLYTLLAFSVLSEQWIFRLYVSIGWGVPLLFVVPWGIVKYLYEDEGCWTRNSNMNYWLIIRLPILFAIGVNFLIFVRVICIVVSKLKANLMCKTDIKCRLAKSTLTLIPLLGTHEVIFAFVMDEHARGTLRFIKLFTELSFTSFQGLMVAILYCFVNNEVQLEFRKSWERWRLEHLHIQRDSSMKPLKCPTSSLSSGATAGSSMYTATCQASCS

[3] = biological target: T1, Glucagon-like peptide 1 receptor; experiment: Agonist activity at human GLP-1R expressed in CHO cells coexpressing GFP assessed as increase in glucagon-like peptide 1-induced receptor internalization at 10 uM by confocal fluorescence microscopy; type: functional, cell-based; conditions: filed as agonist, time 30.0 min
[4] = biological target: T1, Glucagon-like peptide 1 receptor
[5] = biological target: T1, Glucagon-like peptide 1 receptor; remark: listed apart in the source
Description: Agonist activity at human GLP-1R expressed in CHO cells coexpressing beta-arrestin-2 assessed as reduction in cAMP accumulation incubated for 2 hrs under dark condition by LANCE cAMP assay

[6] = biological target: T1, Glucagon-like peptide 1 receptor; remark: listed apart in the source
Description: Agonist activity at human GLP-1R expressed in CHO cells coexpressing beta-arrestin-2 assessed as stimulation intracellular calcium mobilization measured after 180 secs by Fluo-3-AM dye based fluorescence assay

[7] = biological target: T1, Glucagon-like peptide 1 receptor; remark: listed apart in the source
Description: Agonist activity at human GLP-1R assessed as increase in ERK1/2 phosphorylation at Thr202/Tyr204 residues incubated for 20 mins by AlphaLISA assay

[8] = biological target: T1, Glucagon-like peptide 1 receptor; remark: listed apart in the source
Description: Agonist activity at human GLP-1R expressed in CHO cells coexpressing beta-arrestin-2 assessed as increase in beta arrestin-2 recruitment incubated for 1 hr by chemiluminescence based pathHunter assay

[9] = biological target: T1, Glucagon-like peptide 1 receptor; experiment: Receptor residence time at human GLP-1R expressed in CHO cells coexpressing beta-arrestin-2 assessed as inhibition of glucagon-like peptide 1-induced calcium mobilization by measuring half life at 100 uM preincubated for 30 mins followed by glucagon-like peptide 1 addition measured upto 4 hrs by calcium mobilization assay; type: functional, cell-based; conditions: filed as agonist
INS1 = experiment: Induction of glucose-stimulated insulin secretion in rat INS1 cells measured after 1 to 16 hrs by HTRF assay; type: functional, cell-based; conditions: dose 10-1e+07 pM, time lower 1.0 hrs, time upper […], DDE = dose-dependent effect
Mus musculus [10] = experiment: Reduction in blood glucose level in intraperitoneal glucose injected C57BL/6J mouse at 0.1 mg/kg, ip administered as single dose measured 20 to 60 mins by glucose tolerance test; type: functional, organism-based; conditions: time 20-60 min
Mus musculus [11] = experiment: Reduction in blood glucose level in intraperitoneal glucose injected C57BL/6J mouse by measuring glucose area under curve at 0.1 mg/kg, ip administered as single dose measured in 90 mins by glucose tolerance test; type: functional, organism-based
Mus musculus [12] = experiment: Induction of plasma insulin level in C57BL/6J mouse assessed as increase in insulin level at 0.1 mg/kg, ip administered as single dose measured at 10 mins in presence of glucose; type: functional, organism-based
[13] = biological target: T1, Glucagon-like peptide 1 receptor; experiment: Binding affinity to human GLP-1R expressed in CHO cells coexpressing beta-arrestin-2 assessed as fold increase in affinity incubated for 1 hr in presence of N-(tert-butyl)-6,7-dichloro-3-(methylsulfonyl)quinoxalin-2-amine by time-resolved fluorescence assay; type: cell-based

| Molecule | Drug uptake [1] | Activity [2] | Activity [3] | IC50 [4] | EC50 [5] | EC50 [6] | EC50 [7] | EC50 [8] | T1/2 [9] | Activity (INS1) | Activity (Mus musculus [10]) | Activity (Mus musculus [11]) | Activity (Mus musculus [12]) | fold change (FC) [13] |
| --- | --- | --- | --- | --- | --- | --- | --- | --- | --- | --- | --- | --- | --- | --- |
| CC[C@H](C)[C@H](NC(=O)[C@H](Cc1ccccc1)NC(=O)[C@H](CCC(=O)O)NC(=O)[C@H](CCCCN)NC(=O)[C@H](C)NC(=O)[C@H](C)NC(=O)[C@H](CCC(N)=O)NC(=O)CNC(=O)[C@H](CCC(=O)O)NC(=O)[C@H](CC(C)C)NC(=O)[C@H](Cc1ccc(O)cc1)NC(=O)[C@H](CO)NC(=O)[C@H](CO)NC(=O)[C@@H](NC(=O)[C@H](CC(=O)O)NC(=O)[C@H](CO)NC(=O)[C@@H](NC(=O)[C@H](Cc1ccccc1)NC(=O)[C@@H](NC(=O)CNC(=O)[C@H](CCC(=O)O)NC(=O)[C@H](C)NC(=O)[C@@H](N)Cc1c[nH]cn1)[C@@H](C)O)[C@@H](C)O)C(C)C)C(=O)N[C@@H](C)C(=O)N[C@@H](Cc1c[nH]c2ccccc12)C(=O)N[C@@H](CC(C)C)C(=O)N[C@H](C(=O)N[C@@H](CCCCN)C(=O)NCC(=O)N[C@@H](CCCNC(=N)N)C(N)=O)C(C)C | Active | – | – | – | – | – | – | – | – | – | – | – | – | – |
| CC(C)(C)Nc1nc2cc(Cl)c(Cl)cc2nc1S(C)(=O)=O | – | Active | Active | – | – | – | – | – | – | – | – | – | – | – |
| CC[S+]([O-])c1nc(-c2cccc(OCc3ccccc3)c2)cc(C(F)(F)F)n1 (stereo unspecified) | – | Active | Active | – | – | – | – | – | – | – | – | – | – | – |
| CC[C@H](NC(=O)[C@H](CC)NC(=O)[C@@H](NC(=O)[C@H](CC(=O)O)NC(=O)[C@H](CC)NC(=O)[C@@H](NC(=O)[C@H](Cc1ccccc1)NC(=O)[C@@H](NC(=O)CNC(=O)[C@H](CCC(=O)O)NC(=O)[C@H](C)NC(=O)[C@@H](N)Cc1c[nH]cn1)C(C)C)[C@@H](C)O)C(C)C)C(=O)N[C@@H](Cc1ccc(O)cc1)C(=O)N[C@@H](CC(C)C)C(=O)N[C@@H](CCC(=O)O)C(=O)NCC(=O)N[C@@H](CCC(N)=O)C(=O)N[C@@H](C)C(=O)N[C@@H](C)C(=O)N[C@@H](CCCCN)C(=O)N[C@@H](CCC(=O)O)C(=O)N[C@@H](Cc1ccccc1)C(=O)N[C@H](C(=O)N[C@@H](C)C(=O)N[C@@H](Cc1c[nH]c2ccccc12)C(=O)N[C@@H](CC(C)C)C(=O)N[C@H](C(=O)N[C@@H](CCCCN)C(=O)NCC(=O)N[C@@H](CCCNC(=N)N)C(N)=O)C(C)C)[C@@H](C)CC (H-HAEGVFT[Abu]DV[Abu][Abu]YLEGQAAKEFIAWLVKGR-NH2) | – | – | – | 398 nM | 5.01 nM | > 100000 nM | > 10000 nM | > 10000 nM | – | – | – | – | – | – |
| H-HAEGAFTADVAAYLEGQAAKEFIAWLVKGR-NH2 | Active | – | – | 251 nM | 0.0398 nM | > 100000 nM | > 100000 nM | > 10000 nM | 4 h | Dde | Active | Active | Active | 10 |
| H-HAEGTFTADVAAYLEGQAAKEFIAWLVKGR-NH2 | Active | – | – | 251 nM | 0.00501 nM | 794 nM | > 10000 nM | 158 nM | – | – | Active | Active | Active | – |
